Legend:
Rattus norvegicus [1] = experiment: Neuroprotective effect in rat transient mCAO focal ischemia model assessed as reduction of infarct volume at 30 mg/kg relative to control; type: functional; parameters: scale not given: the % may be the effect or the level left
Rattus norvegicus [2] = experiment: Neuroprotective effect in rat transient mCAO focal ischemia model assessed as reduction of infarct volume at 10 mg/kg relative to control; type: functional; parameters: scale not given: the % may be the effect or the level left

For CO[C@@H]1C/C(C)=C\[C@H]2CC[C@@H]([C@@H](C)C[C@@H](C)C(=O)[C@H](OC)[C@H](O)/C(C)=C/[C@@H](C)C(=O)C[C@@H]([C@H](C)C[C@@H]3CC[C@@H](O)[C@H](OC)C3)OC(=O)[C@@H]3CCCCN3C(=O)C(=O)[C@]3(O)O[C@@H](CC[C@H]3C)C1)N(c1ccccc1)O2 [ILS-920], the Activity (Rattus norvegicus [1]) was 36% and the Activity (Rattus norvegicus [2]) was 23%.

From ChEMBL document CHEMBL1139346, “Discovery of innovative small molecule therapeutics” (2009)
